Results reported in the NIST ThermoML archive (doi:10.1016/j.jct.2017.09.020).
Numbers after ± are expanded uncertainties.

Conditions: Liquid, Ebulliometric method (Recirculating still)

Row | SMILES | vapor or sublimation pressure (389.1 K) | vapor or sublimation pressure (404.15 K) | vapor or sublimation pressure (413.57 K) | vapor or sublimation pressure (417.53 K) | vapor or sublimation pressure (433.71 K) | vapor or sublimation pressure (443.3 K)
1 | CCCCCCCCCC(=O)OC [methyl decanoate] | 2 ± 0.21 kPa | 4 ± 0.42 kPa | 6 ± 0.63 kPa |  |  | 
2 | CCCCCCCCCCCC(=O)OC [methyl dodecanoate] |  |  |  | 2 ± 0.21 kPa | 4 ± 0.42 kPa | 6 ± 0.63 kPa
